# Target: GLP-1 Receptor (Homo sapiens, UniProt P43220)
# Test: GLP-1R agonist cAMP stimulation assay (HEK293/GLP1R/CRE-LUC cells, cAMP dynamic 2 kit)
# Format: cell-based
# Conditions: GLP1R cAMP Stimulation DR: EC50 (nM)
# Experimental: Activation of GLP-1 receptor is known to stimulate cyclic AMP (cAMP) production in cells which indicates primary coupling to the Gas subunit of the G protein heterotrimeric complex.
# To optimize functional activity directed toward Gas coupling, a HEK293/CRE-Luc cell line developed by HDB stably expressing the GLP-1 Receptor was used. […] Seal the plate and incubate at 37° C. with 5% CO2 for 30 min.
# After incubation the cAMP assay signal was generated using cAMP dynamic 2 Kit (Cisbio). 5 μL cAMP-d2 working solution was added to each well, followed with 5 μL Anti-cAMP antibody-cryptate working solution added to each well using ThermoFisher Multidrop Combi. Incubate at room temperature for 1 hour protected from light.
# % Activity=[…]×(mean RLU of test sample−mean RLU of vehicle control)/(mean RLU of MAX control−mean RLU of vehicle control))
# Sequence of GLP-1 Receptor (P43220 24-463, species assumed): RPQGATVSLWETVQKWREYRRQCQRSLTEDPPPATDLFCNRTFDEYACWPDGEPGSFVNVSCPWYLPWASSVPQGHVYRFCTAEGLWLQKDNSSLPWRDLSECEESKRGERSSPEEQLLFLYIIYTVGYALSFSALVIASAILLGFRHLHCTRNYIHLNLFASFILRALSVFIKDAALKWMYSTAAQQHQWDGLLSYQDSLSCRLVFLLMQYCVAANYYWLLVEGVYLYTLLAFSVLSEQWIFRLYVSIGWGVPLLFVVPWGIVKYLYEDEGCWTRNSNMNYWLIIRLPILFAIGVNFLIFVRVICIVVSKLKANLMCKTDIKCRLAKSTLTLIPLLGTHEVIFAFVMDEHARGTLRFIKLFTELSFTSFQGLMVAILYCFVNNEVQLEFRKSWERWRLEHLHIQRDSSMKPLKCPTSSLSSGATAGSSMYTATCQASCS
row,Compound,EC50
1,"CC(c1cccc(OC2CCN(Cc3nc4ccc(C(=O)O)nc4n3C[C@@H]3CCO3)CC2)n1)c1ccc(Cl)cc1F (stereo partly drawn) [Compound 128a, 2-{[4-({6-[1-(4-chloro-2-fluorophenyl)ethyl]pyridin-2-yl}oxy)piperidin-1-yl]methyl}-3-{[(2S)-oxetan-2-yl]methyl}-3H-imidazo[4,5-b]pyridine-5-carboxylic acid]",1.2 nM

# Same assay, conditions: HEK293/CRE-Luc cell line stably expressing the GLP-1 Receptor; 30 min incubation at 37° C.; read-out: GLP1R cAMP Stimulation DR: EC50
row,Compound,EC50
1,"O=C(O)c1ccc2nc(CC3CCN(C(=O)c4cccc(Cc5ccc(Cl)cc5F)n4)CC3)n(C[C@@H]3CCO3)c2n1 [Compound 106a, (S)-2-((1-(6-(4-Chloro-2-fluorobenzyl)picolinoyl)piperidin-4-yl)methyl)-3-(oxetan-2-ylmethyl)-3H-imidazo[4,5-b]pyridine-5-carboxylic acid]",463 nM
2,"O=C(O)c1ccc2nc(CN3CCC(Cc4cccc(Oc5ccc(Cl)cc5F)n4)CC3)n(C[C@@H]3CCO3)c2n1 [Compound 121a, 2-[(4-{[6-(4-chloro-2-fluorophenoxy)pyridin-2-yl]methyl}piperidin-1-yl)methyl]-3-{[(2S)-oxetan-2-yl]methyl}-3H-imidazo[4,5-b]pyridine-5-carboxylic acid]",6.5 nM
3,"O=C(O)c1ccc2nc(CN3CCC(Oc4cccc(C(F)(F)c5ccc(Cl)cc5F)n4)CC3)n(C[C@@H]3CCO3)c2n1 [Compound 129a, 2-{[4-({6-[(4-chloro-2-fluorophenyl)difluoromethyl]pyridin-2-yl}oxy)piperidin-1-yl]methyl}-3-{[(2S)-oxetan-2-yl]methyl}-3H-imidazo[4,5-b]pyridine-5-carboxylic acid]",0.91 nM
4,"O=C(O)c1ccc2nc(CN3CCC(Oc4cccc(Cc5ccc(Cl)cc5F)n4)C3)n(C[C@@H]3CCO3)c2n1 (stereo partly drawn) [Compound 130a, 2-{[3-({6-[(4-chloro-2-fluorophenyl)methyl]pyridin-2-yl}oxy)pyrrolidin-1-yl]methyl}-3-{[(2S)-oxetan-2-yl]methyl}-3H-imidazo[4,5-b]pyridine-5-carboxylic acid]",53 nM
5,"CC(=O)Nc1ccc2nc(CN3CCC(Oc4cccc(Cc5ccc(Cl)cc5F)n4)CC3)n(C[C@@H]3CCO3)c2c1 [Compound 134a, N-(2-{[4-({6-[(4-chloro-2-fluorophenyl)methyl]pyridin-2-yl}oxy)piperidin-1-yl]methyl}-1-{[(2S)-oxetan-2-yl]methyl}-1H-1,3-benzodiazol-6-yl)acetamide]",58 nM
6,"O=C(O)c1ccc2nc(CN3CCC(Oc4nc(Cc5ccc(Cl)cc5F)ccc4Cl)CC3)n(C[C@@H]3CCO3)c2n1 [Compound 137a, 2-{[4-({3-chloro-6-[(4-chloro-2-fluorophenyl)methyl]pyridin-2-yl}oxy)piperidin-1-yl]methyl}-3-{[(2S)-oxetan-2-yl]methyl}-3H-imidazo[4,5-b]pyridine-5-carboxylic acid]",51 nM
7,"O=C(O)c1ccc2nc(CN3CCC(c4cccc5nc(Cc6ccc(Cl)cc6F)oc45)CC3)n(C[C@@H]3CCO3)c2n1 [Compound 143a, (S)-2-((4-(2-(4-chloro-2-fluorobenzyl)benzo[d]oxazol-7-yl)piperidin-1-yl)methyl)-3-(oxetan-2-ylmethyl)-3H-imidazo[4,5-b]pyridine-5-carboxylic acid]",0.53 nM
8,"O=C(O)c1ccc2nc(CN3CCC(Oc4ccc(=O)n(Cc5ccc(Cl)cc5F)n4)CC3)n(C[C@@H]3CCO3)c2n1 [Compound 144a, 2-{[4-({1-[(4-chloro-2-fluorophenyl)methyl]-6-oxo-1,6-dihydropyridazin-3-yl}oxy)piperidin-1-yl]methyl}-3-{[(2S)-oxetan-2-yl]methyl}-3H-imidazo[4,5-b]pyridine-5-carboxylic acid]",4.8 nM
9,"O=C(O)c1ccc2nc(CN3CCC(Oc4cccc(CN5Cc6ccccc6C5=O)n4)CC3)n(C[C@@H]3CCO3)c2n1 [Compound 148a, 3-{[(2S)-oxetan-2-yl]methyl}-2-{[4-({6-[(1-oxo-2,3-dihydro-1H-isoindol-2-yl)methyl]pyridin-2-yl}oxy)piperidin-1-yl]methyl}-3H-imidazo[4,5-b]pyridine-5-carboxylic acid]",4.4 nM

# Continued, values first:
row,EC50,Compound
1,0.29 nM,"O=C(O)c1ccc2nc(CN3CCC(Oc4nc(Cc5ccc(Cl)cc5F)ccc4F)CC3)n(C[C@@H]3CCO3)c2n1 [Compound 111a, 2-{[4-({6-[(4-chloro-2-fluorophenyl)methyl]-3-fluoropyridin-2-yl}oxy)piperidin-1-yl]methyl}-3-{[(2S)-oxetan-2-yl]methyl}-3H-imidazo[4,5-b]pyridine-5-carboxylic acid]"
2,0.038 nM,"O=C(O)c1ccc2nc(CN3CCC(Oc4ccnc(Cc5ccc(Cl)cc5F)n4)CC3)n(C[C@@H]3CCO3)c2n1 [Compound 113a, 2-{[4-({2-[(4-chloro-2-fluorophenyl)methyl]pyrimidin-4-yl}oxy)piperidin-1-yl]methyl}-3-{[(2S)-oxetan-2-yl]methyl}-3H-imidazo[4,5-b]pyridine-5-carboxylic acid]"
3,1.7 nM,"O=C(O)c1ccc2nc(CN3CCC(Oc4cc(Cc5ccc(Cl)cc5F)ccc4F)CC3)n(C[C@@H]3CCO3)c2n1 [Compound 114a, 2-[(4-{5-[(4-chloro-2-fluorophenyl)methyl]-2-fluorophenoxy}piperidin-1-yl)methyl]-3-{[(2S)-oxetan-2-yl]methyl}-3H-imidazo[4,5-b]pyridine-5-carboxylic acid]"
4,2.8 nM,"O=C(O)c1ccc2nc(CN3CCC(Oc4ccn(Cc5ccc(Cl)cc5F)n4)CC3)n(C[C@@H]3CCO3)c2c1 [Compound 116a, 2-{[4-({1-[(4-chloro-2-fluorophenyl)methyl]-1H-pyrazol-3-yl}oxy)piperidin-1-yl]methyl}-1-{[(2S)-oxetan-2-yl]methyl}-1H-1,3-benzodiazole-6-carboxylic acid]"
5,0.043 nM,"O=C(O)c1ccc2nc(CN3CCC(Oc4cccc(Cc5ccc(Cl)cc5)n4)CC3)n(C[C@@H]3CCO3)c2n1 [Compound 124a, (S)-2-((4-((6-(4-chlorobenzyl)pyridin-2-yl)oxy)piperidin-1-yl)methyl)-3-(oxetan-2-ylmethyl)-3H-imidazo[4,5-b]pyridine-5-carboxylic acid]"
6,1.4 nM,"O=C(O)c1ccc2nc(CN3CCC(Oc4cccc(Cc5cccc(Cl)c5)n4)CC3)n(C[C@@H]3CCO3)c2n1 [Compound 125a, (S)-2-((4-((6-(3-chlorobenzyl)pyridin-2-yl)oxy)piperidin-1-yl)methyl)-3-(oxetan-2-ylmethyl)-3H-imidazo[4,5-b]pyridine-5-carboxylic acid]"
7,1 nM,"O=C(O)c1ccc2nc(CN3CCC(Oc4cccc(Cc5ccccc5Cl)n4)CC3)n(C[C@@H]3CCO3)c2n1 [Compound 126a, (S)-2-((4-((6-(2-chlorobenzyl)pyridin-2-yl)oxy)piperidin-1-yl)methyl)-3-(oxetan-2-ylmethyl)-3H-imidazo[4,5-b]pyridine-5-carboxylic acid]"
8,2.4 nM,"Cc1cn(Cc2ccc(Cl)cc2F)nc1OC1CCN(Cc2nc3ccc(C(=O)O)nc3n2C[C@@H]2CCO2)CC1 [Compound 133a, 2-{[4-({1-[(4-chloro-2-fluorophenyl)methyl]-4-methyl-1H-pyrazol-3-yl}oxy)piperidin-1-yl]methyl}-3-{[(2S)-oxetan-2-yl]methyl}-3H-imidazo[4,5-b]pyridine-5-carboxylic acid]"
9,1.8 nM,"N#Cc1ccc(Cc2cccc(OC3CCN(Cc4nc5ccc(C(=O)O)cc5n4C[C@@H]4CCO4)CC3)n2)c(F)c1 [Compound 135a, 2-{[4-({6-[(4-cyano-2-fluorophenyl)methyl]pyridin-2-yl}oxy)piperidin-1-yl]methyl}-1-{[(2S)-oxetan-2-yl]methyl}-1H-1,3-benzodiazole-6-carboxylic acid]"
10,0.44 nM,"N#Cc1ccc(Cc2cccc(OC3CCN(Cc4nc5ccc(C(=O)O)nc5n4C[C@@H]4CCO4)CC3)n2)c(F)c1 [Compound 136a, 2-{[4-({6-[(4-cyano-2-fluorophenyl)methyl]pyridin-2-yl}oxy)piperidin-1-yl]methyl}-3-{[(2S)-oxetan-2-yl]methyl}-3H-imidazo[4,5-b]pyridine-5-carboxylic acid]"
11,1.2 nM,"O=C(O)c1ccc2nc(CN3CCC(n4ccc5ccc(Cc6ccc(Cl)cc6F)nc54)CC3)n(C[C@@H]3CCO3)c2n1 [Compound 140a, 2-[(4-{6-[(4-chloro-2-fluorophenyl)methyl]-1H-pyrrolo[2,3-b]pyridin-1-yl}piperidin-1-yl)methyl]-3-{[(2S)-oxetan-2-yl]methyl}-3H-imidazo[4,5-b]pyridine-5-carboxylic acid]"
12,1.7 nM,"O=C(O)c1ccc2nc(CN3CCC(c4cccc5cn(Cc6ccc(Cl)cc6F)nc45)CC3)n(C[C@@H]3CCO3)c2n1 [Compound 142a, (S)-2-((4-(2-(4-chloro-2-fluorobenzyl)-2H-indazol-7-yl)piperidin-1-yl)methyl)-3-(oxetan-2-ylmethyl)-3H-imidazo[4,5-b]pyridine-5-carboxylic acid]"
13,3.4 nM,"O=C(O)c1ccc2nc(CN3CCC(Oc4cccc(Cc5ccc(C(F)(F)F)cc5)n4)CC3)n(C[C@@H]3CCO3)c2n1 [Compound 145a, 3-{[(2S)-oxetan-2-yl]methyl}-2-({4-[(6-{[4-(trifluoromethyl)phenyl]methyl}pyridin-2-yl)oxy]piperidin-1-yl}methyl)-3H-imidazo[4,5-b]pyridine-5-carboxylic acid]"
14,0.62 nM,"O=C(O)c1ccc2nc(CN3CCC(Oc4cccc(Cc5ccc(C6CC6)cc5)n4)CC3)n(C[C@@H]3CCO3)c2n1 [Compound 146a, 2-{[4-({6-[(4-cyclopropylphenyl)methyl]pyridin-2-yl}oxy)piperidin-1-yl]methyl}-3-{[(2S)-oxetan-2-yl]methyl}-3H-imidazo[4,5-b]pyridine-5-carboxylic acid]"

# Same assay, conditions: HEK293/CRE-Luc cell line stably expressing the GLP-1 Receptor; 30 min incubation at 37° C.; read-out: GLP1R cAMP Stimulation DR: pEC50 (converted)
row,Compound,EC50
1,"O=C(O)c1ccc2nc(CN3CCC(Oc4cccc(C(F)(F)c5ccc(Cl)cc5F)n4)CC3)n(C[C@@H]3CCO3)c2n1 [Compound 129a, 2-{[4-({6-[(4-chloro-2-fluorophenyl)difluoromethyl]pyridin-2-yl}oxy)piperidin-1-yl]methyl}-3-{[(2S)-oxetan-2-yl]methyl}-3H-imidazo[4,5-b]pyridine-5-carboxylic acid]",1 nM

# — patent publication US20230071840A1, “HETEROCYCLIC GLP-1 AGONISTS” (Gasherbrum Bio, Inc., priority 2020, published 2023)
